# Data as given in patent US20240156856A1, “NOVEL APPLICATIONS OF HYALURONIC ACID FOR TREATMENT OF PAIN AND PRURITIS” (THE REGENTS OF THE UNIVERSITY OF CALIFORNIA, priority 2022, published 2024).
# “Also recorded” adds a separate entry of the source.
# What was measured:
# [1] = test system: PGE2 hyperalgesia in male and female rats; experiment: PGE2-induced mechanical hyperalgesia, Randall-Selitto paw-withdrawal test; assay type: in vivo, Sprague-Dawley rats; conditions: for PGE2-induced hyperalgesia (mechanical nociceptive threshold): topical 2 μg/μL in 30 μL DMSO vehicle, 30 and 60 min after PGE2
# Protocol: (§1) Experimental animals. Experiments were performed on 220-400 g male and female Sprague-Dawley rats, purchased from Charles River Laboratories (Hollister, CA, USA), housed three per cage, under a 12-hour light/dark cycle, in a temperature- and humidity-controlled animal care facility at the University of California, San Francisco. Food and water were available ad libitum. Experimental protocols were approved by the University of California, San Francisco, Institutional Animal Care and Use Committee, and adhered to the National Institutes of Health Guidelines for the care and use of laboratory animals.
# (§2) Measurement of nociceptive threshold. Mechanical nociceptive threshold was quantified with an Ugo Basile Analgesymeter (Stoelting, Wood Dale, IL, USA), used to perform the Randall-Selitto paw-withdrawal test [61; 68; 69]. This device uses a dome-shaped plinth to apply a mechanical force that increases linearly with time, to the dorsum of a rat's hindpaw. To perform the Randall-Selitto paw-withdrawal test, rats were placed in cylindrical acrylic restrainers with lateral ports that allow access to the hind paw, as described previously. Rats were acclimatized to the testing procedure by placing them in restrainers for 1 h per day for 3 consecutive daily training sessions, and for 30-40 min prior to experiments.
# (§3) Mechanical nociceptive threshold is defined as the force, in grams, applied by the plinth to the dorsum of the hindpaw, at which a rat withdraws its paw from the stimulus. Baseline paw-withdrawal threshold is defined as the mean of three readings taken before administration of test agents. To minimize experimenter bias, individuals conducting experiments were blinded to experimental treatments. Each experiment was performed on a different group of rats. Data are presented as mechanical nociceptive threshold, in grams (g) or percentage change from preintervention baseline.
# Hyaluronans were initially dissolved in distilled water (dH2O) at a concentration of 10 μg/μL, stock solution, and further diluted by adding DMSO with three final concentrations of hyaluronan (1, 2 and 4 μg/μL), protamine or terpene; unless otherwise stated, the final concentration of DMSO was 75%. The DMSO vehicle was 75% DMSO in 0.9% saline. In one experiment, 500-1200 kDa hyaluronan was administered topically in 0.9% saline vehicle. PGE2 was dissolved in 0.9% saline at the same final concentration that we previously injected intradermally (100 ng/5 μL). […]
# [2] = test system: rats with oxaliplatin CIPN; experiment: Oxaliplatin CIPN mechanical hyperalgesia, Randall-Selitto paw-withdrawal test; assay type: in vivo, Sprague-Dawley rats
# Protocol: as §1, §2, §3
# Hyaluronans were initially dissolved in distilled water (dH2O) at a concentration of 10 μg/μL, stock solution, and further diluted by adding DMSO with three final concentrations of hyaluronan (1, 2 and 4 μg/μL), protamine or terpene; unless otherwise stated, the final concentration of DMSO was 75%. The DMSO vehicle was 75% DMSO in 0.9% saline. In one experiment, 500-1200 kDa hyaluronan was administered topically in 0.9% saline vehicle. PGE2 was dissolved in 0.9% saline at the same final concentration that we previously injected intradermally (100 ng/5 μL). In the experiments in which hyaluronan was dissolved in protamine or terpene vehicle, protamine was first dissolved in distilled water (dH2O) to a concentration of 5 μg/μ1, stock solution of hyaluronan was combined with protamine at the final concentration of 2 μg/μ1, in a volume of 3 μl, for topical administration; terpene was first dissolved in dH2O at the concentration of 2 μg/μ1, then hyaluronan was dissolved in stock solution of terpene to its final concentration of 2 μg/μ1, in a volume of 3 μl, for topical administration).
# Oxaliplatin CIPN: Oxaliplatin was freshly dissolved in 0.9% saline at a concentration of 2 mg/mL just prior to its tail vein intravenous (i.v.) administration (1 mL/kg), to rats briefly anesthetized with isoflurane (2.5% in O2).
# Hyaluronans (30 μL) were administered topically on the dorsum of the hind paw, dispensed from a P200 pipette (Gilson, Middleton, WI, USA) with a plastic pipette tip and then spread manually. […]
# Before use, ODNs were reconstituted in nuclease-free 0.9% saline and then administered by the intrathecal (i.t.) route. As described previously, rats were anesthetized with isoflurane (2.5% in O2) and 120 μg of ODN, in a volume of 20 μL, injected i.t., using a syringe ([…]) attached to a 29-gauge hypodermic needle that was inserted into the subarachnoid space, between the L4 and L5 vertebrae. The i.t. site of the injectate was confirmed by a sudden flick of the rat's tail, a reflex evoked by subarachnoid space access and bolus i.t. injection. […]
# rats = conditions: previously shown; cited from earlier work
# [3] = test system: 5-HT-induced scratching behavior in rats; experiment: 5-HT-induced scratching (itch) behavior; assay type: in vivo; conditions: topical, protamine vehicle
# Protocol: Topical hyaluronan attenuates itch behavior in rats. Intradermal administration of serotonin (5-HT) elicited acute scratching behavior, using the method of Nojima and Carstens {Nojima and Carstens, 2003, #99335; PMID: 12814838}. Rats were acclimated to a testing chamber for 30 min, and then briefly anesthetized with 2% isoflurane, during which the fur over the nape of the neck was shaved, and 5-HT (200 μg in 10 μl 0.9% saline vehicle) injected with a 30 gauge needle. In the topical hyaluronan group, hyaluronan (100 μg in 50 μl 75% DMSO in water vehicle) was applied to the skin 30 mins and again 5 mins before administration of 5-HT. Rats were placed back into testing chambers and their behavior video recorded for 40 min. Number of hind paw scratches directed at the injection site were counted by watching video playback at half normal speed, and total number of scratches in 2-min intervals recorded. Rats were treated with 5-HT alone and topical hyaluronan with 5-HT, with 4 days between experimental sessions, allowing for use of paired t-tests to compare data. Data are presented as cumulative number of scratches (FIG. 9A), and as total scratches over the 40-min observation period (FIG. 9B). […] See also, FIG. 10, which includes additional data showing that topical hyaluronan attenuates 5-HT-induced scratching behavior. […] Data are presented as cumulative number of scratches.
# [4] = test system: rats with bortezomib CIPN; experiment: Bortezomib CIPN mechanical hyperalgesia, Randall-Selitto paw-withdrawal test; assay type: in vivo, Sprague-Dawley rats; conditions: topical 2 μg/μL
# Protocol: as §1, §2
# as §3, with “baseline. […]” for “baseline.”
substance,measurement,setting,value
hyaluronan [500-1200 kDa hyaluronan],PGE2-induced hyperalgesia (mechanical nociceptive threshold),[1]; female rats,attenuated PGE2-induced hyperalgesia
same,PGE2-induced hyperalgesia (mechanical nociceptive threshold),[1]; male rats,attenuated PGE2-induced hyperalgesia
same,magnitude of topical anti-hyperalgesia compared with intradermal injection,"[1]; topical, combined with DMSO",anti-hyperalgesia of similar magnitude to that produced by its intradermal injection
same,duration of anti-hyperalgesic effect after initial topical application,"[2]; CIPN rats, initial application, DMSO vehicle",approximately 60 minutes
same,hyperalgesia induced by oxaliplatin,"[2]; female rats given i.t. GPR30 antisense or mismatch ODN, topical 2 μg/μL, 30 μL",attenuated the hyperalgesia induced by oxaliplatin only in the GPR30 antisense-treated group
same,hyperalgesia induced by oxaliplatin,"[2]; gonad intact female rats, topical 2 μg/μL, 30 μL in DMSO vehicle",did not attenuate hyperalgesia
same,hyperalgesia induced by oxaliplatin,"[2]; male rats given i.t. CD44 antisense or mismatch ODN, topical 2 μg/μL, 30 μL in DMSO",only attenuated the hyperalgesia induced by oxaliplatin in the CD44 mismatch-treated group
same,"CIPN hyperalgesia, effect of hyaluronan molecular weight range","[2]; male rats with oxaliplatin CIPN, topical, combined with DMSO","produced robust anti-hyperalgesia, of similar magnitude and duration"
same,time at which anti-hyperalgesia was still present after the second administration,"[2]; male rats, reapplied at the same site after first effect wore off, DMSO vehicle",≥ 180 min
same,oxaliplatin CIPN hyperalgesia,"[2]; male rats, topical 1 μg/μL, 30 μL in DMSO, day 7",only attenuates CIPN hyperalgesia 10 min after application
same,oxaliplatin CIPN hyperalgesia,"[2]; male rats, topical 2 μg/μL in 0.9% saline, without DMSO",did not attenuate oxaliplatin CIPN hyperalgesia
same,anti-hyperalgesia in oxaliplatin CIPN,"[2]; male rats, topical 2 μg/μL, 30 μL in 5% DMSO",did not produce anti-hyperalgesia
same,anti-hyperalgesia in oxaliplatin CIPN,"[2]; male rats, topical 2 μg/μL, 30 μL in 15% DMSO",did not produce anti-hyperalgesia
same,anti-hyperalgesia in oxaliplatin CIPN,"[2]; male rats, topical 2 μg/μL, 30 μL in 20% DMSO",produced anti-hyperalgesia
same,anti-hyperalgesia in oxaliplatin CIPN,"[2]; male rats, topical 2 μg/μL, 30 μL in 25% DMSO",produced anti-hyperalgesia
same,anti-hyperalgesia in oxaliplatin CIPN,"[2]; male rats, topical 2 μg/μL, 30 μL in 50% DMSO",produced anti-hyperalgesia
same,anti-hyperalgesia in oxaliplatin CIPN,"[2]; male rats, topical 2 μg/μL, 30 μL in 75% DMSO",produced anti-hyperalgesia
same,oxaliplatin CIPN hyperalgesia,"[2]; male rats, topical 2 μg/μL, 30 μL in DMSO, day 7","attenuated hyperalgesia 10, 30 and 60 min after application; also recorded: induced anti-hyperalgesia"
same,"time by which anti-hyperalgesia dissipated, first administration","[2]; male rats, topical 2 μg/μL, 30 μL in DMSO, repeated-administration experiment",≤ 120 min
same,oxaliplatin CIPN hyperalgesia,"[2]; male rats, topical 4 μg/μL, 30 μL in DMSO, day 7","attenuated hyperalgesia 10, 30 and 60 min after application"
same,time after application by which the anti-hyperalgesic effect dissipated,"[2]; male rats, topical 2 and 4 μg/μL in DMSO",≤ 120 min
same,anti-hyperalgesia in oxaliplatin-induced CIPN,"[2]; ovariectomized female rats, topical 2 μg/μL, 30 μL in DMSO",induced anti-hyperalgesia of similar magnitude to that observed in gonad intact male rats
same,nociceptive effect of intradermal injection,rats,induced anti-hyperalgesia
same,number of 5-HT-induced scratches,[3]; female rats,significantly attenuated the number of 5-HT-induced scratches
same,number of 5-HT-induced scratches,[3]; male rats,significantly attenuated the number of 5-HT-induced scratches
same,hyperalgesia induced by bortezomib,"[4]; female rats, 30 μL in DMSO vehicle",did not attenuate hyperalgesia
same,hyperalgesia induced by bortezomib,"[4]; male rats, 30 μL in DMSO, day 7",attenuated hyperalgesia induced by bortezomib
